Where two headings read alike, the source gives them in different places.
What was measured:
pNL4-3 N155H = assay type: cell-based, HIV-1
pNL4-3 G140S-Q184H = test: Resistance index on pNL4-3 virus modified by site-directed mutagenesis; assay type: cell-based, HIV-1; details: Table 1C; integrase-inhibitor-resistance mutant G140S-Q184H; ratio IC50 mutant / IC50 wild type
Protocol: (§1) The titres for a single cycle of the virus were determined in HeLa-P4 cells. The cells were infected, in duplicate, in 96-well plates, with the HIV-1 pNL-4.3 clone (equivalent to 3 ng of p24 antigen). The titres for a single cycle of the viruses were determined 48 hours after infection by quantifying the beta-galactosidase activity in P4 lysates by means of a colorimetric test (CPRG test) based on cleavage of chlorophenol red-beta-D-galactopyranoside (CPRG) by beta-galactosidase. The 50% inhibitory concentration (IC50) was determined as the concentration of compound A providing 50% inhibition of beta-galactosidase levels compared with the untreated infected cells.
(§2) Compound A according to the invention was tested on the pNL4-3 virus optionally modified by site-directed mutagenesis, comprising or not comprising (wt) the mutations located in the reverse transcriptase gene and associated with resistance to the main NRTIs used in clinical practice. Tables 1A to 1C below group together the resistance indices of compound A according to the invention on the viruses with and without mutation.
The resistance index of a mutant represents the ratio of the concentration of compound capable of inhibiting by half (IC50) the growth of the mutant virus tested, to the concentration of compound capable of inhibiting by half (IC50) the growth of the wild-type virus. […]

pNL4-3 Q184H = test: as above; assay type: cell-based, HIV-1; details: Table 1C; integrase-inhibitor-resistance mutant Q184H; ratio IC50 mutant / IC50 wild type
[1] = test system: Lai virus in MT2 cells, intracellular viral DNA; test: Inhibition of double-stranded proviral DNA production (Taqman real-time PCR); assay type: cell-based, HIV-1; details: 10 or 25 μM of compound, FIG. 2
Protocol: (§3) The MT2 cells were concentrated at 15×10^6/ml and incubated for 2 h with 10 or 25 μM of compound A. The Lai virus is then added at a multiplicity of infection of 0.01 for 1 h. The cells are washed and then incubated in culture medium containing 10 or 25 μM of the compound to be tested. A sample of 1×10^6 cells is taken at various times and the viral DNA is quantified by means of a Taqman real-time PCR method. The viral RNA loads are quantified in the culture medium (Cobas AmpliPrep/Cobas TaqMan (CTM) HIV-1 v2 test).

[2] = test system: Lai virus in MT2 cells, extracellular viral RNA; test: Inhibition of viral RNA production in culture medium (Cobas TaqMan HIV-1 v2 test); assay type: cell-based
Protocol: as §3

LAI viruses in MT2 cells = test: Antiviral test in MT2 cells (viral load on day 3); assay type: cell-based, HIV-1; details: Human immunodeficiency virus 1; MT2 cells infected with LAI viruses
Protocol: The MT2 cells were concentrated at 3×10^6/ml and infected with 10^7 viruses (LAI). The cells were distributed into 96-well plates (1×10^5/well) and incubated in the presence of various concentrations of compound A (in quadruplicate). The viral loads were determined on day 3 (Cobas AmpliPrep/Cobas TaqMan (CTM) HIV-1 v2 test).
Compound A was tested on MT2 cells infected with LAI viruses.

[3] = test system: HIV-1 pNL-4.3 clone (pNL4-3 wild type); test: Antiviral test in HeLa-P4 cells (single cycle, CPRG beta-galactosidase test); assay type: cell-based
Protocol: HeLa-P4 cells are HeLa CD4 LTR-LacZ cells in which the expression of LacZ is induced by the trans-activating Tat protein of HIV, making it possible to precisely quantify the HIV-1 infectivity from a single replication cycle. HeLa-CD4 cells growing exponentially at a density of 1×10^4/ml are placed in 96-well plates and infected on the following day with 3 ng of HIV p24 antigen in the presence of various concentrations of compounds.
as §1
The antiviral activity of compound A according to the invention was evaluated using an amount of HIV corresponding to 3 ng of p24 antigen.
as §2
(§4) The resistance index of a mutant represents the ratio of the concentration of compound capable of inhibiting by half (IC50) the growth of the mutant virus tested, to the concentration of compound capable of inhibiting by half (IC50) the growth of the wild-type virus.

in vitro = assay type: cell-based; details: read-out: CC50 (50% cytotoxic concentration)
Protocol: A cell viability test measuring the absorbance at 560 and 690 nm using the yellow tetrazolium […] [3-(4,5-dimethyl-2-thiazolyl)-2,5-diphenyltetrazolium bromide] reagent was carried out with the tetrabenzoyladenosine in the HeLa-CD4, Vero, FH, MT2 and SupT1 cell lines.
Using various cell types (HeLa-CD4, Vero, FH, MT2 and SupT1), the CC50 (50% cytotoxic concentration) of compound A was measured at more than 100 μM in all cases.

pNL4-3 E138K = assay type: cell-based, HIV-1
Protocol: as §1, §2, §4
(§5) A resistance index greater than approximately 1.5 or 2 signifies that the viral strain is resistant to the treatment.

pNL4-3 K65R-M184V = assay type: cell-based, HIV-1
Protocol: as §1, §2, §4, §5

pNL4-3 T215Y = assay type: cell-based, HIV-1
Protocol: as §1, §2, §4, §5

pNL4-3 K103N = assay type: cell-based, HIV-1
Protocol: as §1, §2, §4, §5

pNL4-3 M41L-L210W-T215Y = assay type: cell-based, HIV-1
Protocol: as §1, §2, §4, §5

pNL4-3 M184V = assay type: cell-based, HIV-1
Protocol: as §1, §2, §4, §5

[4] = test system: pNL4-3 M184V-M41L-L210W-T215Y; assay type: cell-based, HIV-1
Protocol: as §1, §2, §4, §5

pNL4-3 K65R = assay type: cell-based, HIV-1
Protocol: as §1, §2, §4, §5

[5] = amount of HIV corresponding to 3 ng of p24 antigen

O=C(O[C@@H]1[C@H](OC(=O)c2ccccc2)[C@H](n2cnc3c(N(C(=O)c4ccccc4)C(=O)c4ccccc4)ncnc32)O[C@@H]1CO)c1ccccc1 (stereo in doubt) [compound A, N^6,N^6,O^2′,O^3′-tetrabenzoyladenosine]
Resistance index (pNL4-3 N155H): 1.04 | Resistance index (pNL4-3 G140S-Q184H): 0.99 | Resistance index (pNL4-3 Q184H): 0.88 | appearance of the intracellular viral DNA [1]: inhibited | production of the extracellular viral RNA ([2]; 10 or 25 μM of compound, FIG. 3): inhibited | inhibition of the viral load, comparison with AZT (zidovudine) ([2]; FIGS. 2 and 3): clear superiority | IC50 (LAI viruses in MT2 cells): 1.6 µM | Viral production (10 μM of compound) [3, 5]: 0% | IC50 ([3]; Human immunodeficiency virus 1, HeLaP4, amount of HIV corresponding to 3 ng of p24 antigen, FIG. 1): 1 to 2 µM | Resistance index ([3]; {}): 1 | Resistance index (fold change) ([3]; {}): 1 fold change | CC50 (in vitro; African green monkey, Vero cells): > 100 µM | CC50 (in vitro; FH cells): > 100 µM | CC50 (in vitro; human, HeLa-CD4 cells): > 100 µM | CC50 (in vitro; human, MT2 cells): > 100 µM | CC50 (in vitro; human, SupT1 cells): > 100 µM | Resistance index (pNL4-3 E138K): 0.89 | Resistance index (fold change) (pNL4-3 K65R-M184V): 1.07 fold change | Resistance index (fold change) (pNL4-3 T215Y): 0.41 fold change | Resistance index (pNL4-3 K103N): 1 | Resistance index (fold change) (pNL4-3 M41L-L210W-T215Y): 0.38 fold change | Resistance index (fold change) (pNL4-3 M184V): 0.99 fold change | Resistance index (fold change) [4]: 0.58 fold change | Resistance index (fold change) (pNL4-3 K65R): 0.92 fold change

O=C(Nc1ncnc2c1ncn2[C@@H]1O[C@H](CO)[C@H](OC(=O)c2ccccc2)[C@@H]1OC(=O)c1ccccc1)c1ccccc1 [reference compound]
Viral production (10 μM of compound) [3, 5]: 109%

From patent US9181294B2, “Nucleoside analogues for the treatment of a viral infection, and method for evaluating the sensitivity to said treatment” (priority 2011, dated 2015)
